From patent US11382888B2, “Combination of topical medications for the treatment of skin diseases and methods of use” (American University of Beirut, priority 2019, dated 2022)

Columns and labels:
[1] = general statement, no test described; cited from earlier work
patients with ARCI = assay: Left sided vs right sided trial of the lovastatin-cholesterol combination cream in ARCI patients; format: in vivo, human; set-up: Erythema / Total score: scale not given here; conditions: left side glycolic acid only, right side also combination cream
Excerpt: Each patient was given a severity score based on 5 criteria: (1) skin thickness and/or scaling; (2) pain, pruritus, and/or discomfort; (3) erythema; (4) impact of the condition on the ability to perform daily functions; and (5) the patient's subjective severity scoring, i.e., the patient's own assessment of the severity of the condition.
Five patients applied the combination cream of lovastatin and cholesterol on the right side of the body only, while the glycolic acid was applied to both sides (patients 1, 2, 3, 4, and 6).

## CC(=O)N1CCN(c2ccc(OCC3COC(Cn4ccnc4)(c4ccc(Cl)cc4Cl)O3)cc2)CC1 (racemic) [Ketoconazole, 1-acetyl-4-[4-[[2-(2,4-dichlorophenyl)-2-[(1H-imidazol-1-yl)-methyl]-1,3-dioxolan-4-yl]methoxy]phenyl]piperazine]
[1]
  solubility: low solubility

## O=C(O)CO [glycolic acid, hydroxyacetic acid]
Patients with ARCI; patient 1, at 2 months vs baseline total score
  % change: −5.4545%
Patients with ARCI; patient 1, at 2 months
  Ability to perform daily functions: 5
  Erythema: 9
  Pain/pruritis/discharge: 6
  Patient severity scoring: 17
  Response: Mild
  Skin thickness/scaling: 15
  Total score: 52
Patients with ARCI; patient 1, at 3 months vs baseline total score
  % change: −54.545%
Patients with ARCI; patient 1, at 3 months
  Ability to perform daily functions/to move: 2
  Erythema: 4
  Pain/pruritis/discharge: 2
  Patient severity scoring: 8
  Skin thickness/scaling: 9
  Total score: 25
Patients with ARCI; patient 2, at 2 months vs baseline total score
  % change: −12%
Patients with ARCI; patient 2, at 2 months
  Ability to perform daily functions: 5
  Erythema: 6
  Pain/pruritis/discharge: 6
  Patient severity scoring: 17
  Response: Mild
  Skin thickness/scaling: 10
  Total score: 44
Patients with ARCI; patient 2, at 3 months vs baseline total score
  % change: −58%
Patients with ARCI; patient 2, at 3 months
  Ability to perform daily functions/to move: 2
  Erythema: 4
  Pain/pruritis/discharge: 4
  Patient severity scoring: 5
  Skin thickness/scaling: 6
  Total score: 21
Patients with ARCI; patient 3, at 2 months vs baseline total score
  % change: −3.7037%
Patients with ARCI; patient 3, at 2 months
  Ability to perform daily functions: 3
  Erythema: 3
  Pain/pruritis/discharge: 3
  Patient severity scoring: 10
  Response: Mild
  Skin thickness/scaling: 7
  Total score: 26
Patients with ARCI; patient 3, at 3 months vs baseline total score
  % change: −40.7407%
Patients with ARCI; patient 3, at 3 months
  Ability to perform daily functions/to move: 1
  Erythema: 2
  Pain/pruritis/discharge: 2
  Patient severity scoring: 7
  Response: Good
  Skin thickness/scaling: 4
  Total score: 16
Patients with ARCI; patient 4, at 2 months vs baseline total score
  % change: −41.818%
Patients with ARCI; patient 4, at 2 months
  Ability to perform daily functions: 3
  Erythema: 9
  Pain/pruritis/discharge: 4
  Patient severity scoring: 8
  Response: Good
  Skin thickness/scaling: 8
  Total score: 32
Patients with ARCI; patient 4, at 3 months vs baseline total score
  % change: −65.455%
Patients with ARCI; patient 4, at 3 months
  Ability to perform daily functions/to move: 2
  Erythema: 4
  Pain/pruritis/discharge: 2
  Patient severity scoring: 5
  Skin thickness/scaling: 6
  Total score: 19
Patients with ARCI; patient 6, at 2 months vs baseline total score
  % change: −7.353%
Patients with ARCI; patient 6, at 2 months
  Ability to perform daily functions: 10
  Erythema: 13
  Pain/pruritis/discharge: 8
  Patient severity scoring: 17
  Response: Mild
  Skin thickness/scaling: 15
  Total score: 63
Patients with ARCI; patient 6, at 3 months vs baseline total score
  % change: −10.2941%
Patients with ARCI; patient 6, at 3 months
  Ability to perform daily functions/to move: 10
  Erythema: 13
  Pain/pruritis/discharge: 7
  Patient severity scoring: 17
  Response: Mild
  Skin thickness/scaling: 14
  Total score: 61
